Laboratory results from patent US12441754B2, “Galactoside inhibitor of galectins” (GALECTO BIOTECH AB, priority 2019, dated 2025).

Columns and labels:
Galectin-3 = Galectin-3 (Homo sapiens, UniProt P17931); experiment: fluorescence anisotropy assay, compound as inhibitor of galectin / fluorescein tagged saccharide probe interaction; type: binding
Text: (§1) Anal. Biochem. 334: 36-47, (Sörme et al., 2004) and Monovalent interactions of Galectin-1 By Salomonsson, Emma; Larumbe, Amaia; Tejler, Johan; Tullberg, Erik; Rydberg, Hanna; Sundin, Anders; Khabut, Areej; Frejd, Torbjorn; Lobsanov, Yuri D.; Rini, James M.; et al, From Biochemistry (2010), 49(44), 9518-9532, (Salomonsson et al., 2010).

Galectin-1 = Galectin-1 (Homo sapiens, UniProt P09382); experiment: as above; type: binding
Sequence of Galectin-1 (P09382 whole entry): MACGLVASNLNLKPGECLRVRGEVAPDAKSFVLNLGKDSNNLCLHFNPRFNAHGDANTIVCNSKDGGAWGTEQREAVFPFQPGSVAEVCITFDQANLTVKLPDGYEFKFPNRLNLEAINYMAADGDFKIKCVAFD
Text: as §1

Sequence of Galectin-3 (P17931 whole entry): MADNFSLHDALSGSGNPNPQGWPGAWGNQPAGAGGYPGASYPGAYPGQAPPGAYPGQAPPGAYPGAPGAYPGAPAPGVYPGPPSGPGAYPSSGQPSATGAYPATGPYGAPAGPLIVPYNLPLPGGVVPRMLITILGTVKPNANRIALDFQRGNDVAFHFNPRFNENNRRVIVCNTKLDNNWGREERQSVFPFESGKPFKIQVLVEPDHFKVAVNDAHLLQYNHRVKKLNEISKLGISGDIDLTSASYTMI

Row | Structure (SMILES) | Kd (Galectin-3) | Kd (Galectin-1)
1 | C#Cc1cncc(S[C@H]2O[C@H](CO)[C@H](O)[C@H](n3cc(-c4csc(N)n4)nn3)[C@H]2OC)c1 [Example 81, 5-Ethynylpyridin-3-yl 3-[4-(2-aminothiazol-4-yl)-1H-1,2,3-triazol-1-yl]-3-deoxy-2-O-methyl-1-thio-α-D-galactopyranoside] | 6600 nM | 190 nM
2 | CO[C@@H]1[C@@H](n2cc(-c3nc(Cl)cs3)nn2)[C@@H](O)[C@@H](CO)O[C@@H]1Sc1cncc(C#N)c1 [Example 82, 5-Cyanopyridin-3-yl 3-[4-(4-chlorothiazol-2-yl)-1H-1,2,3-triazol-1-yl]-3-deoxy-2-O-methyl-1-thio-α-D-galactopyranoside] | 520 nM | 170 nM
3 | CO[C@@H]1[C@@H](n2cc(-c3csc(O)n3)nn2)[C@@H](O)[C@@H](CO)O[C@@H]1Sc1cncc(C#N)c1 [Example 83, 5-Cyanopyridin-3-yl 3-deoxy-3-[4-(2-hydroxythiazol-4-yl)-1H-1,2,3-triazol-1-yl]-2-O-methyl-1-thio-α-D-galactopyranoside] | 5700 nM | 150 nM
4 | C#Cc1cnc(C#N)c(S[C@H]2O[C@H](CO)[C@H](O)[C@H](n3cc(-c4csc(N)n4)nn3)[C@H]2O)c1 [Example 84, 2-Cyano-5-ethynylpyridin-3-yl 3-[4-(2-aminothiazol-4-yl)-1H-1,2,3-triazol-1-yl]-3-deoxy-1-thio-α-D-galactopyranoside] | 4100 nM | 540 nM
5 | C#Cc1cnc(C#N)c(S[C@H]2O[C@H](CO)[C@H](O)[C@H](n3cc(-c4csc(N)n4)nn3)[C@H]2OC)c1 [Example 85, 2-Cyano-5-ethynylpyridin-3-yl 3-[4-(2-aminothiazol-4-yl)-1H-1,2,3-triazol-1-yl]-3-deoxy-2-O-methyl-1-thio-α-D-galactopyranoside] | 7700 nM | 110 nM
6 | CCO[C@@H]1[C@@H](n2cc(-c3nc(Cl)cs3)nn2)[C@@H](O)[C@@H](CO)O[C@@H]1Sc1cc(Br)cnc1C#N [Example 86, 5-Bromo-2-cyanopyridin-3-yl 3-[4-(4-chlorothiazol-2-yl)-1H-1,2,3-triazol-1-yl]-3-deoxy-2-O-ethyl-1-thio-α-D-galactopyranoside] | 170 nM | 22 nM
7 | CCO[C@@H]1[C@@H](n2cc(-c3csc(N)n3)nn2)[C@@H](O)[C@@H](CO)O[C@@H]1Sc1ccc(Cl)c(Cl)c1 [Example 87, 3,4-Dichlorophenyl 3-[4-(2-aminothiazol-4-yl)-1H-1,2,3-triazol-1-yl]-3-deoxy-2-O-ethyl-1-thio-α-D-galactopyranoside] | 5500 nM | 110 nM
8 | CCOC1C(n2cc(-c3csc(N)n3)nn2)[C@@H](O)C(CO)O[C@@H]1Sc1ccc(C#N)c(Cl)c1 (stereo partly shown) [Example 88] | 7700 nM | 130 nM
9 | N#Cc1ccc(S[C@@H]2C[C@@H](n3cc(-c4csc(O)n4)nn3)[C@@H](O)[C@@H](CO)O2)cc1Cl [Example 89, 3-Chloro-4-cyanophenyl 2,3-dideoxy-3-[4-(2-hydroxythiazol-4-yl)-1H-1,2,3-triazol-1-yl]-1-thio-α-D-galactopyranoside] | 10500 nM | 210 nM
10 | CCO[C@@H]1[C@@H](n2cc(-c3nc(Cl)cs3)nn2)[C@@H](O)[C@@H](CO)O[C@@H]1Sc1cc(Br)cnc1C(=O)N(C)C [Example 90, 5-Bromo-2-(N,N-dimethylcarbamoyl)pyridin-3-yl 3-[4-(4-chlorothiazol-2-yl)-1H-1,2,3-triazol-1-yl]-3-deoxy-2-O-ethyl-1-thio-α-D-galactopyranoside] | 44 nM | 8.5 nM

Next, values leading:

Row | Kd (Galectin-3) | Kd (Galectin-1) | Structure (SMILES)
11 | 51 nM | 24 nM | C#Cc1cnc(C(=O)N(C)C)c(S[C@H]2O[C@H](CO)[C@H](O)[C@H](n3cc(-c4nc(Cl)cs4)nn3)[C@H]2OC)c1 [Example 91, 5-Ethynyl-2-(N,N-dimethylcarbamoyl)pyridin-3-yl 3-[4-(4-chlorothiazol-2-yl)-1H-1,2,3-triazol-1-yl]-3-deoxy-2-O-methyl-1-thio-α-D-galactopyranoside]
12 | 99 nM | 32 nM | C#Cc1cnc(C(=O)N2CCC2)c(S[C@H]2OC(CO)[C@H](O)C(n3cc(-c4nc(Cl)cs4)nn3)C2OC)c1 (stereo partly drawn) [Example 92, 2-(N-Azetidinylcarbamoyl)-5-ethynylpyridin-3-yl 3-[4-(4-chlorothiazol-2-yl)-1H-1,2,3-triazol-1-yl]-3-deoxy-2-O-methyl-1-thio-α-D-galactopyranoside]
13 | 48 nM | 15 nM | CNC(=O)c1ncc(Cl)cc1S[C@H]1O[C@H](CO)[C@H](O)[C@H](n2cc(-c3nc(Cl)cs3)nn2)[C@H]1OC [Example 93, 5-Chloro-2-(N-methylcarbamoyl)pyridin-3-yl 3-[4-(4-chlorothiazol-2-yl)-1H-1,2,3-triazol-1-yl]-3-deoxy-2-O-methyl-1-thio-α-D-galactopyranoside]
14 | 74 nM | 12 nM | CCNC(=O)c1ncc(Cl)cc1S[C@H]1O[C@H](CO)[C@H](O)[C@H](n2cc(-c3nc(Cl)cs3)nn2)[C@H]1OC [Example 94, 5-Chloro-2-(N-ethylcarbamoyl)pyridin-3-yl 3-[4-(4-chlorothiazol-2-yl)-1H-1,2,3-triazol-1-yl]-3-deoxy-2-O-methyl-1-thio-α-D-galactopyranoside]
15 | 93 nM | 8 nM | CCO[C@@H]1[C@@H](n2cc(-c3nc(Cl)cs3)nn2)[C@@H](O)[C@@H](CO)O[C@@H]1Sc1cc(Cl)cnc1C(=O)NC [Example 95, 5-Chloro-2-(N-methylcarbamoyl)pyridin-3-yl 3-[4-(4-chlorothiazol-2-yl)-1H-1,2,3-triazol-1-yl]-3-deoxy-2-O-ethyl-1-thio-α-D-galactopyranoside]
16 | 210 nM | 22 nM | CO[C@@H]1[C@@H](n2cc(-c3nc(Cl)cs3)nn2)[C@@H](O)[C@@H](CO)O[C@@H]1Sc1cc(Cl)ccc1C#N [Example 96, 5-Chloro-2-cyanophenyl 3-[4-(4-chlorothiazol-2-yl)-1H-1,2,3-triazol-1-yl]-3-deoxy-2-O-methyl-1-thio-α-D-galactopyranoside]
17 | 320 nM | 83 nM | CO[C@@H]1[C@@H](n2cc(-c3nc(Cl)cs3)nn2)[C@@H](O)[C@@H](CO)O[C@@H]1Sc1ccc2ncsc2c1 [Example 97, 1,3-Benzothiazol-6-yl 3-[4-(4-chlorothiazol-2-yl)-1H-1,2,3-triazol-1-yl]-3-deoxy-2-O-methyl-1-thio-α-D-galactopyranoside]
18 | 6500 nM | 64 nM | CO[C@@H]1[C@@H](n2cc(-c3csc(O)n3)nn2)[C@@H](O)[C@@H](CO)O[C@@H]1Sc1ccc2ncsc2c1 [Example 98, 1,3-Benzothiazol-6-yl 3-deoxy-3-[4-(2-hydroxythiazol-4-yl)-1H-1,2,3-triazol-1-yl]-2-O-methyl-1-thio-α-D-galactopyranoside]
19 | 7500 nM | 180 nM | CO[C@@H]1[C@@H](n2cc(-c3csc(N)n3)nn2)[C@@H](O)[C@@H](CO)O[C@@H]1Sc1ccc2ncsc2c1 [Example 99, 1,3-Benzothiazol-6-yl 3-[4-(2-aminothiazol-4-yl)-1H-1,2,3-triazol-1-yl]-3-deoxy-2-O-methyl-1-thio-α-D-galactopyranoside]
20 | 180 nM | 32 nM | CO[C@@H]1[C@@H](n2cc(-c3nc(Cl)cs3)nn2)[C@@H](O)[C@@H](CO)O[C@@H]1Sc1cc2scnc2cc1C#N [Example 100, 5-Cyano-1,3-benzothiazol-6-yl 3-[4-(4-chlorothiazol-2-yl)-1H-1,2,3-triazol-1-yl]-3-deoxy-2-O-methyl-1-thio-α-D-galactopyranoside]
